Measurements: the supplement of paper PMC10307832

Compound: CCN(CC)CCNC(=O)c1c(C)[nH]c(/C=C2\C(=O)Nc3ccc(F)cc32)c1C [Sunitinib] + CC(C)C[C@H](NC(=O)[C@H](Cc1ccccc1)NC(=O)c1cnccn1)B(O)O [Bortezomib] (partner 0.002 µM)
Assay: relative viability (nuclei count vs DMSO), 5 days (fraction); higher = more cells survive
Outline: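 Lung cancer cell lines, seeded in 1536-well plates, were treated the following day by pin tool with a single drug or with five library-drug doses (not always all listed) in √10 steps on top of a fixed anchor-drug dose. Cells were fixed and nuclei stained in one step after 5 days, and nuclei were counted. Relative viability is the nuclei count for treated wells divided by that for vehicle wells, reported as medians of duplicate plates.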

Cell Line	relative viability (first compound 0.02 µM)	relative viability (first compound 0.2 µM)	relative viability (first compound 0.6325 µM)	relative viability (first compound 2 µM)	relative viability (first compound 0.06325 µM)
NCI-H2009	0.973	1.01	1.17	1.18	
NCI-H838	0.831	0.914	0.859	0.744	1.04
LC-2-ad	0.883	1.05	1.07	0.932	1.04
NCI-H2087	0.855	0.966	0.994	1.04	0.793
NCI-H2347	0.853	1.1		1.11	1.21
NCI-H1299	0.999	1.01		1	1.06
NCI-H1650	0.194	0.192	0.203	0.211	0.226
HCC-78	0.508	0.518	0.464	0.494	0.554
UMC-11	0.61	0.841	0.762	0.896	
IA-LM	0.831	0.868	1.12	1.18	0.85
NCI-H1734	0.855	1.35	1.09	0.911	0.962
NCI-H1437	0.567	0.514	0.494	0.551	0.643
HOP-62	0.798	0.947	0.871	1.13	0.83
HCC-15	0.941	1.17	1.02	1.05	1.16
HCC-44	0.893	1.1		0.88	0.898
NCI-H596	0.996	0.999	1.08	1.33	1.16
NCI-H322M	1.19	1.52	1.42	1.35	1.35

Cell Line	relative viability (first compound 0.02 µM)	relative viability (first compound 0.2 µM)	relative viability (first compound 0.6325 µM)	relative viability (first compound 2 µM)	relative viability (first compound 0.06325 µM)
NCI-H2023	0.921	1.11	1.22		1.13
NCI-H661		0.801	1	0.87	0.77
BEN	0.769	0.757	0.784	0.733	0.904
ABC-1	0.294	0.297	0.289	0.312	0.309
LOU-NH91	0.586	0.463	0.426	0.494	0.48
HCC-366	0.98	1.04	1.15	0.989	1.05
PC-14	0.946	0.99	0.878	0.726	0.858
NCI-H441		0.533	0.281	0.558	1.05
NCI-H1703	0.249	0.176	0.19	0.176	0.218
NCI-H1993	1.1	1.36		1.04	1.34
NCI-H2126	1.07	1.16	1.15	1.13	1.19
COR-L23	0.995	1	1.13		1.02
NCI-H1792	0.93	1.09	0.99	0.981	0.924
NCI-H520	0.738	0.638	0.783	0.819	0.785
COR-L 105	0.977	0.923	1.01	0.823	0.877
HCC-827	1.05	1.04		1.12	1.15
NCI-H2228	1.04	1.22	1.15	1	1.14
